For test [1], the target named is full-length WT STING (Homo sapiens (Human), UniProt Q86WV6, H232R). In words: 3H-cGAMP filtration binding assay (WT STING). Conditions: competition with tritiated cGAMP, WT STING membrane. An excerpt: The ability of compounds to bind STING is quantified by their ability to compete with tritiated cGAMP ligand for human STING receptor membrane using a radioactive filter-binding assay. The binding assay employs STING receptor obtained from Trichoplusia ni cell membranes (Tni; Expression Systems, cat #94-002F, www.expressionsystems.com) overexpressing full-length WT STING prepared in-house and tritiated cGAMP ligand also purified in-house.
The basic WT STING filtration assay protocol is as follows:
The filter plates were then dried at 55° C. for 30 min using a pressurized VWR oven before 30 uL of Ultima GoldF scintillate was added to each well. Tritium levels for each reaction well were then measured using a PerkinElmer TopCount plate reader.
(§1) After normalization to controls, the percent activity for each compound concentration was calculated by measuring the amount of remaining radioactivity. The plot of percent activity versus the log of compound concentration was fit with a 4-parameter dose response equation to calculate EC50 values.

Test [2] concerns the target full-length HAQ STING (Homo sapiens (Human), UniProt Q86WV6, G230A/H232R/R293Q/R71H). In words: 3H-cGAMP filtration binding assay (HAQ STING). Conditions: competition with tritiated cGAMP, HAQ STING membrane.
Text: The ability of compounds to bind STING is quantified by the ability to compete with tritiated cGAMP ligand for human STING receptor membrane using a radioactive filter-binding assay. The binding assay employs STING receptor obtained from Hi-Five cell membranes overexpressing full-length HAQ STING prepared in-house and tritiated cGAMP ligand also purified in-house.
The ability of compounds to bind STING is quantified by their ability to compete with tritiated cGAMP ligand for human STING receptor membrane using a radioactive filter-binding assay. The binding assay employs STING receptor obtained from Trichoplusia ni cell membranes (Tni; Expression Systems, cat #94-002F, www.exrpressionsystems.com) overexpressing full-length HAQ STING prepared in-house and tritiated cGAMP ligand also purified in-house.
The basic HAQ STING filtration assay protocol is as follows:
Compound and membrane then preincubated for 60 min at RT to allow compound binding to equilibrate. Following equilibration, 8 nM of [^3H] c-GAMP ligand was prepared by diluting into assay buffer, and 50 uL of this working stock was then manually added to each well of the assay plate. […] The filter plates were then dried at 55° C. for 30 min using a pressurized VWR oven before 30 uL of Ultima GoldF scintillate was added to each well. Tritium levels for each reaction well were then measured using a PerkinElmer TopCount plate reader.
as §1

The test system of test [3] is THP1 cells. The experiment in a line: IFN-β secretion in THP1 cell culture (5 h). The class given is cell-based, human. Particulars: IFN-β secretion, THP1 cells, 5 h, 30 μM. The procedure:
The ability of compounds to stimulate the secretion of interferon-beta from THP1 cells was measured using a human IFN-β AlphaLISA kit (Perkin Elmer, Cat. No. AL265F). The basic protocol is as follows:
A Labcyte Echo 550 acoustic dispenser was used to transfer 120 nL of compound dissolved in DMSO into the wells of an empty, sterile 384-well microplate, (Corning, Cat. No. 3712). THP1 cells (American Type Culture Collection, Cat. No. TIB202) previously frozen in Recovery Medium (Life Technologies, Cat. No. 12648-010) were thawed and immediately diluted 10-fold into 37° C. assay medium (RPMI 1640+L-Glutamine & phenol red, Life Technologies, Cat. No. 11875-085; 0.5% heat inactivated fetal bovine serum, Sigma Aldrich, Cat. No. F4135; 1 mM Sodium Pyruvate, Life Technologies, Cat. No. 11360-070; lx non-essential amino acids; Life Technologies, Cat. No. 11140-050). The cell viability and count was ascertained using a Beckman Coulter V-Cell XR cell counter. The cells suspension was centrifuged at 200×g for 5 min at RT. Cells were resuspended to a density of 0.8×10^6/mL in 37° C. assay medium. Subsequent liquid transfers were performed using either a Matrix electronic multichannel pipette or an Agilent Bravo Automated Liquid Handling Platform.
The assay was started by dispensing 40 μL of the previously prepared cell suspension into the wells of the plate containing compounds. After 5 h incubation at 37° C., 5% CO2 in a humidified atmosphere, the plate of cells and compounds was centrifuged at 200×g for 5 min at RT. From each well, 5 μL of supernatant was transferred into corresponding wells of a white 384-well plate (Perkin Elmer, Cat. No. 6005620). To these supernatant-containing wells was added 10 μL of 5× Anti-Analyte Acceptor beads (50 μg/mL of AlphaLISA HiBlock Buffer) and incubated for 30 min at RT while shaking on an orbital plate shaker. To each well was added 10 μL of 5× Biotinylated Antibody Anti-analyte (5 nM in AlphaLISA HiBlock Buffer) and incubated on an orbital plate shaker for 60 min at RT or overnight at 4° C. To each well was added 25 μL of 2× SA-Donor beads (80 μg/mL in AlphaLISA HiBlock Buffer) and incubated for 30-45 min at RT in the dark while shaking on an orbital plate shaker. The plate was then read on a Perkin Elmer Envision (λex=680 nm, λem=[…]). The percent effect of the AlphaLISA signal at each compound concentration was calculated based on 30 uM cGAMP positive controls and 0.3% DMSO negative controls. The plot of percent effect versus the log of compound concentration was fit with a 4-parameter concentration response equation to calculate EC50 values. The test compounds were tested at concentrations 30000, 10000, 3333, 1111, 370.4, 123.4, 41.2, 13.7, 4.6, and 1.5 nM with 0.3% residual DMSO.
Compounds of the disclosure were evaluated for IFN-β secretion in THP1 cell culture as described above. The following table tabulates the biological data for these compounds as percent activation relative to 2′3′-cGAMP at the 30 μM concentration.

Bounds are passed on as bounds.

As usually defined, the EC50 is the concentration at which the effect is half-maximal. Low readings indicate a more potent agent, high ones a less potent agent.

Sequence of full-length WT STING (Q86WV6 other isoform, or with tags, fused parts or gaps H232R (already in the parent)): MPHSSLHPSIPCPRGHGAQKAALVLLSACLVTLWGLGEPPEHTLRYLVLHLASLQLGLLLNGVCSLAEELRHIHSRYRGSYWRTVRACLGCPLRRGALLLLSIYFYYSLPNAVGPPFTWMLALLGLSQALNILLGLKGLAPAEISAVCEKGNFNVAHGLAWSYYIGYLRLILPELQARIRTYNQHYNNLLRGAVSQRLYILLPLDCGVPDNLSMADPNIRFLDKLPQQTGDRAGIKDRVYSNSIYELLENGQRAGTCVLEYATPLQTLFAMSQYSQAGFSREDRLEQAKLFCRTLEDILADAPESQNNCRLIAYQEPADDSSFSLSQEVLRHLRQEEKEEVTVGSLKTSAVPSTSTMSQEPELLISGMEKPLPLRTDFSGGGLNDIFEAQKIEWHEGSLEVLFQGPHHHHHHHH
Sequence of full-length HAQ STING (Q86WV6 other isoform, or with tags, fused parts or gaps, stated change not applied): as the sequence (Q86WV6 other isoform, or with tags, fused parts or gaps H232R (already in the parent)) above, with R71H, G230A, R293Q counted along it

Consider `Nc1nc2c(ncn2[C@H]2O[C@@H]3COP(=O)(O)O[C@@H]4[C@H](N)[C@@H](COP(=O)(O)O[C@@H]2[C@@H]3O)O[C@H]4n2cnc3c(N)ncnc32)c(=O)[nH]1` [Example 34], for which the EC50 in test [1] and in test [2] was less than 1 nM in each case. The “% Effect at 30 μM relative to 2′3′-cGAMP” value in test [3] is given as 132%.
Take `Nc1nc2c(ncn2[C@@H]2O[C@@H]3COP(=O)(S)O[C@@H]4[C@@H](F)[C@@H](COP(=O)(S)O[C@@H]2[C@H]3F)O[C@H]4n2cnc3c(=O)[nH]c(N)nc32)c(=O)[nH]1` (stereo partly drawn) [Example 30, 9,9′-[(1S,6R,8R,9S,14R,16R,17S,18S)-17,18-difluoro-3,11-dioxido-3,11-disulfanyl-2,4,7,10,12,15-hexaoxa-3,11-diphosphatricyclo[12.2.1.1^6,9]octadecane-8,16-diyl]bis(2-amino-1,9-dihydro-6H-purin-6-one)]: the EC50 in test [1] came out at 7350 nM. Besides, the activation at 30 µM in test [3] (Homo sapiens, THP-1, 5 h, read-out: % Effect at 30 μM relative to 2′3′-cGAMP) was found to be 8%.

For the origin of these results see patent US10738074B2, “Cyclic di-nucleotide compounds as STING agonists” (Merck Sharp & Dohme Corp., priority 2015, dated 2020).
